We go through 38 compounds from patent US20170273985A1, “TRICYCLIC DERIVATIVE” (Sunovion Pharmaceuticals Inc., priority 2014, published 2017).

What all share (assay type): biochemical
In experiment [1] the target is PDE1B (Homo sapiens, UniProt Q01064). Put plainly: In vitro HTRF PDE1 inhibition assay (PDE1B). An outline of the steps: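 PDE1A3, 1B or 1C with calmodulin hydrolysed 100 nM cGMP in Tris buffer pH 7.4 (1 mM CaCl2, 10 mM MgCl2, 0.1% BSA, 1% DMSO) for 45 min at 37 °C. Remaining cGMP was measured by HTRF competition (d2-cGMP, anti-cGMP cryptate; 665/615 nm). IC50 is reported in bins: <1, 1-10 and 10-100 μM.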

Experiment [2] concerns the target PDE1C (Homo sapiens, UniProt Q14123). Put plainly: In vitro HTRF PDE1 inhibition assay (PDE1C). The source says:
(§1) An exemplary procedure for the in vitro Homogenous Time Resolved Fluorescence assay, which can be used to determine the inhibitory action of compounds of the invention toward PDE1 or its isoforms, follows. The HTRF PDE1 assay utilized the HTRF (Homogenous Time Resolved Fluorescence) technology, which is based on the competition between unlabeled cyclic nucleotide and cyclic nucleotide labeled with XL665 for the binding to cyclic nucleotide-specific antibody labeled with cryptate. The HTRF signal is thus inversely proportional to the concentration of cyclic nucleotide being measured. Since phosphodiesterases break down cyclic nucleotides the HTRF signal was used to determine PDE activity. The Cisbio cGMP HTRF assay kit (Cat no: 62GM2PEC) was utilized. Cyclic GMP was diluted to 200 nM in HTRF assay buffer (1 mM CaCl2, 10 mM MgCl2, 10 mM Tris-HCl, 0.1% BSA, pH 7.4). 10 μl of compound or DMSO was diluted in 200 nM cyclic GMP solution and added to wells of a 96 well white plate to give 100 nM cyclic GMP in 1% DMSO final concentration. PDE (1A3, 1B or IC) was diluted to 2× working concentration in HTRF assay buffer with 2 μg/ml calmodulin, and 10 μl was added to initiate the reaction. The plate was then incubated for 45 minutes at 37° C. d2-Labelled cyclic GMP and anti-cGMP cryptate were diluted in 50 mM phosphate buffer, 0.8 M KF, 1% Triton X100, 0.2% BSA, pH 7.0. Following incubation 10 μl d2-cGMP, then 10 μl anti cGMP cryptate were added to each well and the plate was incubated for 45 minutes at room temperature. The plate was then read on Perkin Elmer Victor at 2 different FRET readings ex/emm 340 nm/665 nm and 340 nm/615 nm. Compounds having an IC50 of <1 μM, are denoted as +++. Compounds having an IC50 of 1−10 μM, are denoted as ++. Compounds having an IC50 of 10-100 μM, are denoted as +.
(In general: TR-FRET usually uses a lanthanide donor and a delayed reading to cut background.)

Experiment [3] deals with PDE1A3 (Homo sapiens, UniProt P54750). As to the kind of experiment: In vitro HTRF PDE1 inhibition assay (PDE1A3).
From the text: as §1

pIC50: −log10 of the molar value. Bounds are passed on as bounds.

In general, pIC50 refers to the negative decadic logarithm of the IC50, by convention in mol/L. The low end stands for a large IC50, the high end for a small IC50. For the compound `CCN1c2nn3c(C4CCOCC4)ncc3c(=O)n2CC1c1ccc(OC)cc1` (racemic) [Example 66], the pIC50 in experiment [1] (Table 22) is greater than 6.00; in experiment [2] (Table 24) it was 5.00 to 6.00; in experiment [3] (Table 23), greater than 6.00.

Consider `CC(C)c1ncc2c(=O)n3c(nn12)N(CC1CCOCC1)CC3` [Example 1, 8-Isopropyl-1-((tetrahydro-2H-pyran-4-yl)methyl)-2,3-dihydrodiimidazo[2,1-c:1′,5′-f][1,2,4]triazin-5(1H)-one], for which the pIC50 in experiment [1] (Table 22) is greater than 6.00; in experiment [2] (Table 24) it was 5.00 to 6.00; in experiment [3] (Table 23), greater than 6.00.

With `CC(C)c1ncc2c(=O)n3c(nn12)N(CCCc1ccccn1)CC3` [Example 11], the pIC50 in experiment [1] (Table 22) is greater than 6.00; in experiment [2] (Table 24) it was 5.00 to 6.00; in experiment [3] (Table 23), greater than 6.00.

Consider `CC(C)CN1CCCn2c1nn1c(C(C)C)ncc1c2=O` [Example 16], for which the pIC50 in experiment [1] (Table 22), in experiment [2] (Table 24) and in experiment [3] (Table 23) was greater than 6.00 in each case.

Regarding `CC(C)c1ncc2c(=O)n3c(nn12)N(CCC1CCOCC1)CCC3` [Example 24], the pIC50 in experiment [1] (Table 22), in experiment [2] (Table 24) and in experiment [3] (Table 23) was greater than 6.00 each time.

With `CC(C)c1ncc2c(=O)n3c(nn12)N(CC1CCOCC1)CCC3` [Example 25], the pIC50 in experiment [1] (Table 22), in experiment [2] (Table 24) and in experiment [3] (Table 23) was greater than 6.00 throughout.

As for `CC(C)c1ncc2c(=O)n3c(nn12)N(Cc1ccc(C#N)cc1)CCC3` [Example 30], the pIC50 in experiment [1] (Table 22), in experiment [2] (Table 24) and in experiment [3] (Table 23) was greater than 6.00 throughout.

Take `CC(C)(C)CCN1CCn2c1nn1c(C3CCOCC3)ncc1c2=O` [Example 55]: the pIC50 in experiment [1] (Table 22), in experiment [2] (Table 24) and in experiment [3] (Table 23) was greater than 6.00 each time.

With `O=c1c2cnc(C3CCOCC3)n2nc2n1CCN2CCCC(F)(F)F` [Example 56], the pIC50 in experiment [1] (Table 22) was greater than 6.00; in experiment [2] (Table 24), 4.00 to 5.00; in experiment [3] (Table 23), 5.00 to 6.00.

As for `O=c1c2cnc(C3CCOCC3)n2nc2n1CCCN2Cc1ccccc1` [Example 59], the pIC50 in experiment [1] (Table 22) is greater than 6.00; in experiment [2] (Table 24), 5.00 to 6.00; in experiment [3] (Table 23), greater than 6.00.

Take `CC1CN(CC2CCOCC2)c2nn3c(C(C)C)ncc3c(=O)n2C1` (stereo not shown) [Example 64]: the pIC50 in experiment [1] (Table 22), in experiment [2] (Table 24) and in experiment [3] (Table 23) was greater than 6.00 throughout.

Regarding `CN1c2nn3c(C4CCOCC4)ncc3c(=O)n2CCC1c1ccc(Cl)cc1` (stereo not shown) [Example 69], the pIC50 was greater than 6.00 in experiment [1] (Table 22), 5.00 to 6.00 in experiment [2] (Table 24) and greater than 6.00 in experiment [3] (Table 23).

As for `CCN1c2nn3c(C4CCOCC4)ncc3c(=O)n2CC[C@@H]1c1ccc(Cl)cc1` [Example 70], the negative logarithm of the IC50 (pIC50) in experiment [1] (Table 22) is greater than 6.00; in experiment [2] (Table 24), 5.00 to 6.00; in experiment [3] (Table 23), greater than 6.00.

Regarding `CC(C)n1ncc2c(=O)n3c(nc21)N(Cc1ccc(-c2ccccn2)cc1)CC3` [Example 75], the pIC50 in experiment [1] (Table 22), in experiment [2] (Table 24) and in experiment [3] (Table 23) was greater than 6.00 in each case.

For `CC(C)n1ncc2c(=O)n3c(nc21)N(CC1CCOCC1)CCC3` [Example 78], the pIC50 in experiment [1] (Table 22) is greater than 6.00; in experiment [2] (Table 24) it was 5.00 to 6.00; in experiment [3] (Table 23), greater than 6.00.

Regarding `CC(C)n1ncc2c(=O)n3c(nc21)N(Cc1ccc(C#N)cc1)CCC3` [Example 79], the pIC50 in experiment [1] (Table 22), in experiment [2] (Table 24) and in experiment [3] (Table 23) was greater than 6.00 in each case.

Turning to `CC(C)n1ncc2c(=O)n3c(nc21)N(C)C(c1ccc(Cl)cc1)CC3` (stereo not shown) [Example 81], the pIC50 in experiment [1] (Table 22) was greater than 6.00; in experiment [2] (Table 24) it was 5.00 to 6.00; in experiment [3] (Table 23) it was greater than 6.00.

Regarding `CC(C)c1ncc2c(=O)n3c(nn12)N(CCCCCCO)CCC3` [Example 106], the pIC50 in experiment [1] (Table 22), in experiment [2] (Table 24) and in experiment [3] (Table 23) was greater than 6.00 each time.

`CC(C)c1ncc2c(=O)n3c(nn12)N(CCCc1ccccn1)CCC3` [Example 120, 9-Isopropyl-1-[3-(2-pyridinyl)propyl]-1,2,3,4-tetrahydro-6H-imidazo[5,1-f]pyrimido[2,1-c][1,2,4]triazin-6-one]: the pIC50 in experiment [1] (Table 22), in experiment [2] (Table 24) and in experiment [3] (Table 23) was greater than 6.00 throughout.

On to `O=c1c2cnc(C3CCCC3)n2nc2n1CCCC2` [Example 137], for which the pIC50 in experiment [1] (Table 22) was greater than 6.00; in experiment [2] (Table 24), 5.00 to 6.00; in experiment [3] (Table 23), 5.00 to 6.00.

For the compound `O=c1c2cnc(C3CCOCC3)n2nc2n1CCN2CC1CCCCC1` [Example 153], the pIC50 in experiment [1] (Table 25), in experiment [2] (Table 27) and in experiment [3] (Table 26) was greater than 6.00 throughout.

For the compound `O=c1c2cnc(C3CCOCC3)n2nc2n1CCN2Cc1ccc(F)cc1` [Example 154], the negative-log IC50 (pIC50) in experiment [1] (Table 25), in experiment [2] (Table 27) and in experiment [3] (Table 26) was greater than 6.00 throughout.

Regarding `O=c1c2cnc(C3CCOCC3)n2nc2n1CCN2Cc1cccc(F)c1` [Example 155], the pIC50 in experiment [1] (Table 25), in experiment [2] (Table 27) and in experiment [3] (Table 26) was greater than 6.00 each time.

`O=c1c2cnc(C3CCOCC3)n2nc2n1CCN2Cc1ccccc1F` [Example 156]: the pIC50 in experiment [1] (Table 25), in experiment [2] (Table 27) and in experiment [3] (Table 26) was greater than 6.00 throughout.

As for `O=c1c2cnc(C3CCOCC3)n2nc2n1CCN2CC1(C(F)(F)F)CC1` [Example 159], the pIC50 in experiment [1] (Table 25), in experiment [2] (Table 27) and in experiment [3] (Table 26) was greater than 6.00 each time.

Take `O=c1c2cnc(C3CCOCC3)n2nc2n1CCN2CCC1(C(F)(F)F)CC1` [Example 160]: the pIC50 in experiment [1] (Table 25), in experiment [2] (Table 27) and in experiment [3] (Table 26) was greater than 6.00 in each case.

On to `O=c1c2cnc(C3CCOCC3)n2nc2n1CCN2CC1CCC(F)(F)CC1` [Example 171], for which the pIC50 in experiment [1] (Table 25), in experiment [2] (Table 27) and in experiment [3] (Table 26) was greater than 6.00 throughout.

For `CC(C)CCN1CCn2c1nn1c(C3CCOCC3)ncc1c2=O` [Example 172], the pIC50 in experiment [1] (Table 25), in experiment [2] (Table 27) and in experiment [3] (Table 26) was greater than 6.00 each time.

As for `O=c1c2cnc(C3CCOCC3)n2nc2n1CCCN2CC1(C(F)(F)F)CC1` [Example 187], the pIC50 in experiment [1] (Table 25), in experiment [2] (Table 27) and in experiment [3] (Table 26) was greater than 6.00 each time.

Regarding `O=c1c2cnc(C3CCOCC3)n2nc2n1CCCN2CCC1(C(F)(F)F)CC1` [Example 188], the pIC50 in experiment [2] (Table 27) and in experiment [3] (Table 26) was greater than 6.00 each time.

For the compound `O=c1c2cnc(C3CCOCC3)n2nc2n1CCCN2CC1CCC(F)(F)CC1` [Example 190], the pIC50 in experiment [1] (Table 25), in experiment [2] (Table 27) and in experiment [3] (Table 26) was greater than 6.00 throughout.

In the case of `CO[C@H]1CC[C@H](CN2CCCn3c2nn2c(C4CCOCC4)ncc2c3=O)CC1` [Example 191], the pIC50 in experiment [1] (Table 25), in experiment [2] (Table 27) and in experiment [3] (Table 26) was greater than 6.00 each time.

In the case of `CCO[C@H]1CC[C@H](CN2CCCn3c2nn2c(C4CCOCC4)ncc2c3=O)CC1` [Example 193], the pIC50 in experiment [1] (Table 25), in experiment [2] (Table 27) and in experiment [3] (Table 26) was greater than 6.00 in each case.

For `CC(C)c1ncc2c(=O)n3c(nn12)N(CC1CCOCC1)CC1(CC1)C3` [Example 200], the pIC50 in experiment [1] (Table 25), in experiment [2] (Table 27) and in experiment [3] (Table 26) was greater than 6.00 throughout.

Consider `CC(C)c1ncc2c(=O)n3c(nn12)N(CC1CCOCC1)C[C@@H](C)C3` [Example 232], for which the pIC50 in experiment [1] (Table 25), in experiment [2] (Table 27) and in experiment [3] (Table 26) was greater than 6.00 in each case.

As for `CC(C)c1ncc2c(=O)n3c(nn12)N(CC1CCOCC1)C[C@H](C)C3` [Example 233], the pIC50 in experiment [1] (Table 25), in experiment [2] (Table 27) and in experiment [3] (Table 26) was greater than 6.00 each time.

In experiment [1] (Table 25), `CC(C)CCN1CCn2c1nn1c(C3CCOCC3)nc(C#N)c1c2=O` [Example 235, 1-(3-Methylbutyl)-5-oxo-8-(tetrahydro-2H-pyran-4-yl)-2,3-dihydro-1H,5H-diimidazo[2,1-c 5′,1′-f][1,2,4]triazine-6-carbonitrile] showed a pIC50 of 5.00 to 6.00.

As to `CC(C)CCN1CCn2c1nn1c(C3CCOCC3)nc(Cl)c1c2=O` [Example 236, 6-Chloro-1-(3-methylbutyl)-8-(tetrahydro-2H-pyran-4-yl)-2,3-dihydro-1H,5H-diimidazo[2,1-c:5′,1′-f][1,2,4]triazin-5-one], in experiment [1] (Table 25), the pIC50 was greater than 6.00.
